Results taken from patent publication US10829520B2, “Beta-hairpin peptidomimetics” (POLYPHOR AG, priority 2015, dated 2020).
Where a SMILES comes first, the peptide text is derived from it. Bridges are numbered along the chain shown (N, C = ends). [ ]: non-standard residue; d: D form. aThr = C[C@H](O)[C@H](N)C(=O)O; Tle = CC(C)(C)[C@H](N)C(=O)O; Nle = CCCC[C@H](N)C(=O)O; Dab = NCC[C@H](N)C(=O)O; Dap = NC[C@H](N)C(=O)O; Aib = CC(C)(N)C(=O)O

How the values were obtained:
Assay type in all cases: cell-based
[1] = test system: Acinetobacter baumannii 872842; conditions: 872842
[2] = test system: Acinetobacter baumannii DSM 30008; conditions: DSM 30008
Method in brief: (§1)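 Inocula standardised to a 0.5 McFarland reference and diluted to about 10^6 CFU/mL in MH-II broth are incubated with two-fold peptide series containing 0.002% polysorbate 80. No visible growth after 18-20 hours at 35° C defines the MIC, in μg/mL.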

Escherichia coli 926415 = conditions: 926415
[3] = test system: Escherichia coli ATCC 25922; conditions: ATCC 25922
Method in brief: as §1

[4] = test system: Klebsiella pneumoniae 968733; conditions: 968733
[5] = test system: Klebsiella pneumoniae SSI #3010; conditions: SSI #3010
Method in brief: as §1

[6] = test system: Pseudomonas aeruginosa ATCC 27853; conditions: ATCC 27853
Method in brief: as §1

[7] = test system: human red blood cells (hRBC); assay: Hemolysis of human red blood cells; conditions: red cells of human, 1 h, 100 μg/mL
Method in brief: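 Peptides at 100 μg/mL were incubated with PBS-washed fresh human erythrocytes (20% v/v, ~0.9×10^9 cells/mL final) for 1 h at 37° C. with shaking. Supernatant OD540 was read after 8-fold dilution; percent hemolysis was expressed relative to the 2.5% Triton X-100 full-lysis control, with PBS/0.001% acetic acid as 0%.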

SMILES	Acinetobacter baumannii 872842 MIC [1] [µg/mL]	Acinetobacter baumannii DSM 30008 MIC [2] [µg/mL]	Escherichia coli 926415 MIC (Escherichia coli 926415) [µg/mL]	Escherichia coli ATCC 25922 MIC [3] [µg/mL]	Klebsiella pneumoniae 968733 MIC [4] [µg/mL]	Klebsiella pneumoniae SSI #3010 MIC [5] [µg/mL]	Pseudomonas aeruginosa ATCC 27853 MIC [6] [µg/mL]	Hemolysis at 100 μg/mL [7] [%]
CCCC[C@@H]1NC(=O)[C@@H]2CCCN2C(=O)[C@H]2CCCN2C(=O)[C@H](CO)NC(=O)[C@H](C)NC(=O)[C@H](C(C)(C)C)NC(=O)[C@@H](NC(=O)[C@H](Cc2c[nH]c3ccccc23)NC(C)=O)CSSC[C@@H](C(=O)N[C@@H](CCN)C(=O)N[C@H](C(=O)N[C@@H](CCN)C(=O)N[C@H]2CCNC(=O)[C@H]([C@@H](C)O)NC(=O)[C@H](CCN)NC(=O)[C@H](CCN)NC(=O)[C@H](CC(C)C)NC(=O)[C@@H](Cc3ccccc3)NC(=O)[C@H](CCN)NC2=O)[C@H](C)O)NC(=O)[C@H](Cc2ccc(O)cc2)NC(=O)[C@H](CO)NC1=O [Ex. 21] (Ac-WC[Tle]AS[dP]P[Nle]SYC[Dab][aThr][Dab][Dab][Dab][dF]L[Dab][Dab]T; disulfide 2-11; lactam 15-C)	1	0.25	1	0.25	2	0.25	0.5	<1
CCCC[C@@H]1NC(=O)[C@@H]2CCCN2C(=O)[C@H]2CCCN2C(=O)[C@H](CO)NC(=O)[C@H](C)NC(=O)[C@H](C(C)(C)C)NC(=O)[C@@H](NC(=O)[C@H](Cc2c[nH]c3ccccc23)NC(C)=O)CSSC[C@@H](C(=O)N[C@@H](CCN)C(=O)NCC(=O)N[C@@H](CCN)C(=O)N[C@H]2CCNC(=O)[C@H]([C@@H](C)O)NC(=O)[C@H](CCN)NC(=O)[C@H](CCN)NC(=O)[C@H](CC(C)C)NC(=O)[C@@H](Cc3ccccc3)NC(=O)[C@H](CCN)NC2=O)NC(=O)[C@H](Cc2ccc(O)cc2)NC(=O)[C@H](CO)NC1=O [Ex. 22] (Ac-WC[Tle]AS[dP]P[Nle]SYC[Dab]G[Dab][Dab][Dab][dF]L[Dab][Dab]T; disulfide 2-11; lactam 15-C)	0.125	0.5	0.5	0.125	1	0.25	0.25	<1
CCCC[C@@H]1NC(=O)[C@@H]2CCCN2C(=O)[C@H]2CCCN2C(=O)[C@H](CO)NC(=O)[C@H](C)NC(=O)[C@H](C(C)(C)C)NC(=O)[C@@H](NC(=O)[C@H](Cc2c[nH]c3ccccc23)NC(C)=O)CSSC[C@@H](C(=O)N[C@@H](CCN)C(=O)NC(C)(C)C(=O)N[C@@H](CCN)C(=O)N[C@H]2CCNC(=O)[C@H]([C@@H](C)O)NC(=O)[C@H](CCN)NC(=O)[C@H](CCN)NC(=O)[C@H](CC(C)C)NC(=O)[C@@H](Cc3ccccc3)NC(=O)[C@H](CCN)NC2=O)NC(=O)[C@H](Cc2ccc(O)cc2)NC(=O)[C@H](CO)NC1=O [Ex. 23] (Ac-WC[Tle]AS[dP]P[Nle]SYC[Dab][Aib][Dab][Dab][Dab][dF]L[Dab][Dab]T; disulfide 2-11; lactam 15-C)	0.5	0.5	0.5	0.25	2	0.25	0.5	1
CCCC[C@@H]1NC(=O)[C@@H]2CCCN2C(=O)[C@H]2CCCN2C(=O)[C@H](CO)NC(=O)[C@H](C)NC(=O)[C@H](C(C)(C)C)NC(=O)[C@@H](NC(=O)[C@H](Cc2c[nH]c3ccccc23)NC(C)=O)CSSC[C@@H](C(=O)N[C@@H](CCN)C(=O)N[C@H](C(=O)N[C@@H](CCN)C(=O)N[C@H]2CCNC(=O)[C@H]([C@@H](C)O)NC(=O)[C@H](CNC(=O)[C@@H](N)CCC(=O)O)NC(=O)[C@H](CCN)NC(=O)[C@H](CC(C)C)NC(=O)[C@@H](Cc3ccccc3)NC(=O)[C@H](CCN)NC2=O)[C@@H](C)O)NC(=O)[C@H](Cc2ccc(O)cc2)NC(=O)[C@H](CO)NC1=O [Ex. 25] (Ac-WC[Tle]AS[dP]P[Nle]SYC[Dab]T[Dab][Dab][Dab][dF]L[Dab][Dap](Glu)T; disulfide 2-11; lactam 15-C)	1	1	3	2	8	4	4	3
CCCC[C@@H]1NC(=O)[C@@H]2CCCN2C(=O)[C@H]2CCCN2C(=O)[C@H](CO)NC(=O)[C@H](C)NC(=O)[C@H](C(C)(C)C)NC(=O)[C@@H](NC(=O)[C@H](Cc2c[nH]c3ccccc23)NC(C)=O)CSSC[C@@H](C(=O)NCC(=O)N[C@@H](CCN)C(=O)N[C@H](C(=O)N[C@@H](CCN)C(=O)N[C@H]2CCNC(=O)[C@H]([C@@H](C)O)NC(=O)[C@H](CCN)NC(=O)[C@H](CCN)NC(=O)[C@H](CC(C)C)NC(=O)[C@@H](Cc3ccccc3)NC(=O)[C@H](CCN)NC2=O)[C@@H](C)O)NC(=O)[C@H](Cc2ccc(O)cc2)NC(=O)[C@H](CO)NC1=O [Ex. 26] (Ac-WC[Tle]AS[dP]P[Nle]SYCG[Dab]T[Dab][Dab][Dab][dF]L[Dab][Dab]T; disulfide 2-11; lactam 16-C)	0.125	0.5	0.25	0.0625	0.5	0.25	0.25	<1
CCCC[C@@H]1NC(=O)[C@@H]2CCCN2C(=O)[C@H]2CCCN2C(=O)[C@H](CO)NC(=O)[C@H](C)NC(=O)[C@H](C(C)(C)C)NC(=O)[C@@H](NC(=O)[C@H](Cc2c[nH]c3ccccc23)NC(C)=O)CSSC[C@@H](C(=O)N[C@@H](CCN)C(=O)N[C@@H](CCN)C(=O)N[C@H](C(=O)N[C@@H](CCN)C(=O)N[C@H]2CCNC(=O)[C@H]([C@@H](C)O)NC(=O)[C@H](CCN)NC(=O)[C@H](CCN)NC(=O)[C@H](CC(C)C)NC(=O)[C@@H](Cc3ccccc3)NC(=O)[C@H](CCN)NC2=O)[C@@H](C)O)NC(=O)[C@H](Cc2ccc(O)cc2)NC(=O)[C@H](CO)NC1=O [Ex. 27] (Ac-WC[Tle]AS[dP]P[Nle]SYC[Dab][Dab]T[Dab][Dab][Dab][dF]L[Dab][Dab]T; disulfide 2-11; lactam 16-C)	0.125	0.125	0.5	0.0625	0.5	0.125	0.25	<1
CCCC[C@@H]1NC(=O)[C@@H]2CCCN2C(=O)[C@H]2CCCN2C(=O)[C@H](CO)NC(=O)[C@H](C)NC(=O)[C@H](C(C)(C)C)NC(=O)[C@@H](NC(=O)[C@H](Cc2c[nH]c3ccccc23)NC(C)=O)CSSC[C@@H](C(=O)N[C@@H](C)C(=O)N[C@@H](CCN)C(=O)N[C@H](C(=O)N[C@@H](CCN)C(=O)N[C@H]2CCNC(=O)[C@H]([C@@H](C)O)NC(=O)[C@H](CCN)NC(=O)[C@H](CCN)NC(=O)[C@H](CC(C)C)NC(=O)[C@@H](Cc3ccccc3)NC(=O)[C@H](CCN)NC2=O)[C@@H](C)O)NC(=O)[C@H](Cc2ccc(O)cc2)NC(=O)[C@H](CO)NC1=O [Ex. 28] (Ac-WC[Tle]AS[dP]P[Nle]SYCA[Dab]T[Dab][Dab][Dab][dF]L[Dab][Dab]T; disulfide 2-11; lactam 16-C)	1	0.5	1.5	0.25	0.375	0.25	0.5	1
CCCC[C@@H]1NC(=O)[C@@H]2CCCN2C(=O)[C@H]2CCCN2C(=O)[C@H](CO)NC(=O)[C@H](C)NC(=O)[C@H](C(C)(C)C)NC(=O)[C@@H](NC(=O)[C@H](Cc2c[nH]c3ccccc23)NC(C)=O)CSSC[C@@H](C(=O)N[C@H](C)C(=O)N[C@@H](CCN)C(=O)N[C@H](C(=O)N[C@@H](CCN)C(=O)N[C@H]2CCNC(=O)[C@H]([C@@H](C)O)NC(=O)[C@H](CCN)NC(=O)[C@H](CCN)NC(=O)[C@H](CC(C)C)NC(=O)[C@@H](Cc3ccccc3)NC(=O)[C@H](CCN)NC2=O)[C@@H](C)O)NC(=O)[C@H](Cc2ccc(O)cc2)NC(=O)[C@H](CO)NC1=O [Ex. 29] (Ac-WC[Tle]AS[dP]P[Nle]SYC[dA][Dab]T[Dab][Dab][Dab][dF]L[Dab][Dab]T; disulfide 2-11; lactam 16-C)	0.25	0.25	1	0.125	1	0.25	0.5	<1
